# ChEMBL document CHEMBL1135219, “Anti-HIV-1 activities and pharmacokinetics of new arylpiperazinyl fluoroquinolones” (Bioorg Med Chem Lett, 2002)
# Columns and labels:
# MT4 [1] = test: The compound was tested for cytotoxicity against mock-infected MT-4 cells.; format: functional; settings: Homo sapiens
# MT4 [2] = test: The compound was tested against HIV-1(IIIB) replication on the inhibition of virus -induced cytopathogenicity in MT-4 cells.; format: functional, cell-based; settings: Homo sapiens
# [3] = Peak concentration (Cmax) at a dose of 20 mg/kg in rats; format: ADME, organism-based; parameters: dose 20 mg/kg; settings: rat, in vivo
# [4] = Time for peak concentration (tmax) at a dose of 20 mg/kg in rats; format: ADME, organism-based; parameters: dose 20 mg/kg; settings: rat, in vivo
# MT4 [5] = test: The compound was tested against HIV-1(IIIB) replication on the inhibition of virus -induced cytopathogenicity in MT-4 cells; format: functional, cell-based; settings: Homo sapiens
# MT4 [6] = test: The compound was tested for cytotoxicity against mock-infected MT-4 cells; format: functional; settings: Homo sapiens
# [7] = Mean residence time was determined after intravenous administration in cynomolgus monkeys; format: ADME, organism-based; settings: cercopithecidae, in vivo
# [8] = The distribution volume after intravenous administration in cynomolgus monkeys; format: ADME, organism-based; settings: cercopithecidae, in vivo, read-out: Vdss
# [9] = Half-life period after oral administration in cynomolgus monkeys; format: ADME, organism-based; settings: cercopithecidae, in vivo
# [10] = The time for peak concentration value after oral administration in cynomolgus monkeys; format: ADME, organism-based; settings: cercopithecidae, in vivo
# [11] = The peak concentration (Cmax) value after oral administration in cynomolgus monkeys; format: ADME, organism-based; parameters: route oral; settings: cercopithecidae, in vivo
# [12] = Bioavailability was reported in cynomolgus monkeys (ratio of AUC in oral administration to that of intravenous administration); format: ADME, organism-based; settings: cercopithecidae, in vivo, read-out: BA
# [13] = Half-life period after intravenous administration in cynomolgus monkeys; format: ADME, organism-based; settings: cercopithecidae, in vivo
# [14] = Area under curve was determined using trapezoidal rule after oral administration in cynomolgus monkeys; format: ADME; settings: cercopithecidae, in vivo
# [15] = Area under curve was determined using trapezoidal rule after intravenous administration in cynomolgus monkeys; format: ADME; settings: cercopithecidae, in vivo
# [16] = The total clearance was determined after intravenous administration in cynomolgus monkeys; format: ADME, organism-based; settings: cercopithecidae, in vivo, read-out: CLtotal (converted)
# [17] = Peak concentration (Cmax) at a dose of 10 mg/kg in rats; format: ADME, organism-based; parameters: dose 10 mg/kg; settings: rat, in vivo
# [18] = Time for peak concentration (tmax) at a dose of 10 mg/kg in rats; format: ADME, organism-based; parameters: dose 10 mg/kg; settings: rat, in vivo
Cmax [3],Tmax [4],SMILES,CC50 (MT4 [1]),IC50 (MT4 [2]),IC50 (MT4 [5]),CC50 (MT4 [6]),also measured
6740 ng/mL,2 h,CCn1cc(C(=O)O)c(=O)c2cc(F)c(N3CCN(c4ccccn4)CC3)c(C(F)(F)F)c21,370 nM,26 nM,,,
,,COc1ccccc1N1CCN(c2c(F)cc3c(=O)c(C(=O)O)cn(C)c3c2C(F)F)CC1,,,350 nM,11000 nM,
26400 ng/mL,1 h,Cn1cc(C(=O)O)c(=O)c2cc(F)c(N3CCN(c4ccccn4)CC3)c(C(F)(F)F)c21,220 nM,14 nM,,,MRT [7]: 9.3 h; Vd [8]: 0.509 L/kg; half-life [9]: 7.5 h; Tmax [10]: 2 h; Cmax [11]: 1400 ng/mL; bioavailability [12]: 93.5%; half-life [13]: 8.8 h; AUC [14]: 17200 ng·h/mL; AUC [15]: 18400 ng·h/mL; clearance [16]: 0.928 mL/min/kg
5460 ng/mL,2 h,CCn1cc(C(=O)O)c(=O)c2cc(F)c(N3CCN(c4ncccn4)CC3)c(C(F)(F)F)c21,1500 nM,95 nM,,,
58500 ng/mL,1 h,Cn1cc(C(=O)O)c(=O)c2cc(F)c(N3CCN(c4ncccn4)CC3)c(C(F)(F)F)c21,890 nM,49 nM,,,MRT [7]: 8.2 h; Vd [8]: 0.491 L/kg; half-life [9]: 8.7 h; Tmax [10]: 4 h; Cmax [11]: 1500 ng/mL; bioavailability [12]: 112%; half-life [13]: 7.6 h; AUC [14]: 18400 ng·h/mL; AUC [15]: 16400 ng·h/mL; clearance [16]: 1.08 mL/min/kg
,,CCn1cc(C(=O)O)c(=O)c2cc(F)c(N3CCN(c4ccccn4)CC3)c(C(F)F)c21,,,890 nM,4100 nM,
,,CCn1cc(C(=O)O)c(=O)c2cc(F)c(N3CCN(c4ccccc4OC)CC3)c(C(F)(F)F)c21,750 nM,110 nM,,,
,,O=C(O)c1cn(C2CC2)c2c(C(F)F)c(N3CCN(c4ncccn4)CC3)c(F)cc2c1=O,,,3700 nM,21000 nM,
,,COc1ccccc1N1CCN(c2c(F)cc3c(=O)c(C(=O)O)cn(C4CC4)c3c2C(F)F)CC1,12000 nM,560 nM,,,
,,O=C(O)c1cn(C2CC2)c2c(C(F)F)c(N3CCN(c4ccccn4)CC3)c(F)cc2c1=O,,,490 nM,9200 nM,
5830 ng/mL,2 h,O=C(O)c1cn(C2CC2)c2c(C(F)(F)F)c(N3CCN(c4ccccn4)CC3)c(F)cc2c1=O,1400 nM,65 nM,,,MRT [7]: 0.8 h; Vd [8]: 0.225 L/kg; Tmax [10]: 2 h; Cmax [11]: 100 ng/mL; bioavailability [12]: 4.3%; half-life [13]: 0.7 h; AUC [15]: 3500 ng·h/mL; clearance [16]: 4.89 mL/min/kg
,,CCn1cc(C(=O)O)c(=O)c2cc(F)c(N3CCN(c4ncccn4)CC3)c(C(F)F)c21,20000 nM,470 nM,,,
,,Cn1cc(C(=O)O)c(=O)c2cc(F)c(N3CCN(c4ncccn4)CC3)c(C(F)F)c21,13000 nM,310 nM,,,
,,Cn1cc(C(=O)O)c(=O)c2cc(F)c(N3CCN(c4ccccn4)CC3)c(C(F)F)c21,,,240 nM,9200 nM,
,,CCn1cc(C(=O)O)c(=O)c2cc(F)c(N3CCN(c4ccccc4OC)CC3)c(C(F)F)c21,,,220 nM,8300 nM,
3460 ng/mL,4 h,COc1ccccc1N1CCN(c2c(F)cc3c(=O)c(C(=O)O)cn(C4CC4)c3c2C(F)(F)F)CC1,870 nM,69 nM,,,
7020 ng/mL,1 h,O=C(O)c1cn(C2CC2)c2c(C(F)(F)F)c(N3CCN(c4ncccn4)CC3)c(F)cc2c1=O,5200 nM,190 nM,,,
,,COc1ccccc1N1CCN(c2c(F)cc3c(=O)c(C(=O)O)cn(C)c3c2C(F)(F)F)CC1,500 nM,54 nM,,,Cmax [17]: 2770 ng/mL; Tmax [18]: 2 h
